Where two headings read alike, the source gives them in different places.
Tests used:
STAT6 = STAT6 inhibition test: (GLS)x8/pTA-Luc luciferase reporter in U2-OS cells stimulated with human IL-4; type: cell-based; details: human IL-4 40 ng/mL; for inhibition at 2 µM / Inhibition Rate of STAT6 (%): compound 2 μM, 8 hours; for inhibition at 2 µM: read-out: Inhibition Rate of STAT6 (%); for IC50: from inhibition rates at 1, 0.1, 0.01 and 0.001 μM, read-out: IC50 against activation of STAT6
Description: (1) Construction of a STAT6 Reporter Plasmid
The Oligonucleotides (SEQ ID: 1, 2) containing two copies of STAT6 binding sequences (refer to J. Biol. Chem., vol. 276, No. 9, pp. 6675-6688 (2001).) were synthesized, and integrated into the enhancer region of the reporter plasmid pTA-Luc Vector (CLONTECH Laboratories, Inc.) at the restriction enzyme BgIII site.
When the oligonucleotide is integrated in positive direction into the plasmid, the upstream BglII site is not reconstructed. Therefore, STAT6 binding sequences can be increased by repeating integration of the oligonucleotide at the restriction enzyme BglII site.
In the present test, a plasmid including eight integrated STAT6 binding sequences was constructed and provided for the reporter assay as (GLS)x8/pTA-Luc. Confirmation of the sequences was carried out using an automated fluorescence sequencer (Model 310 (Applied Biosystems)).
(2) Transfection into U2-OS Cells and Inhibition Test for STAT6 Activation
U2-OS cells were seeded to at 2×10^4 cells/well in 96-well culture plates, and transfection was carried out using FuGENE 6 Transfection Reagent (Roche Diagnostics GmbH). The procedures of the transfection are shown below.
11 μg of reporter plasmid ((GLS)x8/pTA-Luc) and 1.1 μg of pCMV β (CLONTECH Laboratories, Inc.) were mixed in 1.1 mL of OPTI-MEM I medium (GIBCO BRL) (solution (A)).
33 μL of FuGENE 6 Transfection Reagent was mixed in 1.1 mL of OPTI-MEM I medium (solution (B)).
(§1) The above solution (A) and solution (B) were mixed, let them stand for 15 minutes at room temperature, then, 8.8 mL of OPTI-MEM I medium was added and diluted.
To this transfection solution, U2-OS cell suspension (11 mL) in McCoy's 5A medium (GIBCO BRL) containing 10% Fetal Bovine Serum (FBS; GIBCO BRL) at 2×10^5 cells/mL was added and well mixed.
(§2) 0.2 mL of the above solution was dispensed into each well of 96-well culture plates, and incubated for 24 hours (37° C., 5% CO2).
After removal of 50 μL of medium from each well, 50 μL of McCoy's 5A medium (serum-free) containing compound, of the present application was added to a final concentration of 0.01˜2 μM (0.001, 0.01, 0.1, 0.5, 1 or 2 μM), and the plates were incubated for 2 hours (37° C., 5% CO2).
10 μL of the McCoy's 5A medium (serum-free) containing human IL-4 (R&D Systems, Inc) was added to each well to achieve a final concentration of 40 ng/mL, and incubated for 8 hours (37° C., 5% CO2).
(§3) Medium was completely removed and plates were preserved at −80° C. until measurements.
(§4) Cell lysates were prepared by adding 40 μL of Passive Lysis Buffer (Promega Corporation) to each well.
(§5) 10 μL of each lysate was transferred to 96-well white plates. 50 μL of PicaGene L.T.2.0 (TOYO INK MFG. CO., LTD.) was added to each well, then, luminescence was measured after leaving for 10 minutes at room temperature.
(§6) 10 μL of each lysate was transferred to 96-well black plates. 100 μL of Z Buffer (preparation method will be explained later) was added to each well, and fluorescence was measured immediately.
(§7) 10 μL of each lysate was transferred to 96-well clear plates. 200 μL of protein assay reagent prepared from the BCA Protein Assay Kit (Pierce Biotechnology, Inc.) was added to each well, and, absorbance was measured after incubation for 30 minutes at 37° C.
(§8) For measurements of luminescence, fluorescence, and absorbance, microplate reader GENios (TECAN G.M.B.H.) was used.
(4) Calculation of Inhibition Rate
Luminescence values that show the degree of activation by IL-4 stimulation were normalized by β-gal values that show transfection efficiency. Using the normalized values, the following calculations were carried out using the luminescence values increased by IL-4 stimulation. Inhibition Rate(%)=[…] E: In the presence of the compound of the present application, increased luminescence value by IL-4 stimulation C: Without the presence of the compound of the present application, increased luminescence value by IL-4 stimulation […]

NF-κB = NF-κB inhibition test: pNFκB-Luc luciferase reporter in U2-OS cells stimulated with human TNF α; type: cell-based; details: human TNF α 10 ng/mL; for inhibition at 2 µM / Inhibition Rate of NF-κB (%): compound 2 μM, 8 hours; for inhibition at 2 µM: read-out: Inhibition Rate of NF-κB (%); for IC50: from inhibition rates at 1, 0.1, 0.01 and 0.001 μM, read-out: IC50 against activation of NF-κB
Description: (1) Transfection to U2-OS Cells and Inhibition Test of Activation
U2-OS cells were seeded at 2×10^4 cells/well in 96-well culture plate, and transfection was carried out using FuGENE 6 Transfection Reagent (Roche Diagnostics GmbH). The procedures of the transfection are shown below.
11 μg of reporter plasmid (pNFκB-Luc; Stratagene Corporation) and 1.1 μg of pCMV β (CLONTECH Laboratories, Inc.) were mixed in 1.1 mL of OPTI-MEM I medium (GIBCO BRL) (solution (A)).
[…] of FuGENE 6 Transfection Reagent was mixed in 1.1 mL of OPTI-MEM I medium (solution (B)).
as §1
To this transfection solution, U2-OS cell suspension (11 mL) in McCoy's 5A medium (GIBCO BRL) containing 10% Fetal Bovine Serum (FBS; GIBCO BRL) at […] was added and well mixed.
as §2
After removal of 50 μL of medium from each well, 50 μL of McCoy's 5A medium (serum-free) containing compound of the present application was added to a final concentration of 0.01˜2 μM (0.001, 0.01, 0.1, 0.5, 1 or 2 μM), and the plates were incubated for 2 hours (37° C., 5% CO2).
10 μL of the McCoy's 5A medium (serum-free) containing human TNF α (PEPROTECH EC Ltd.) was added to each well to achieve a final concentration of 10 ng/mL, and incubated for 8 hours (37° C., 5% CO2).
as §3, §4, §5, §6, §7, §8
(3) Calculation of Inhibition Rate
Luminescence values that show the degree of activation by TNF α stimulation were normalized by β-gal values that show transfection efficiency. Using the normalized values, the following calculation was carried out using the luminescence values that increased by TNF α stimulation. Inhibition Rate(%)=[…] E: In the presence of the compound of the present application, increased luminescence values by TNF α stimulation C: Without the presence of the compound of the present application, increased luminescence values by TNF α, stimulation
The values of protein assay by BCA reagent were used for a simple assessment of cytotoxicity, and not used for the calculation of inhibition rates.
NF-κB Inhibition Rates are shown below. The values in parentheses in the table represent the concentration of the compound of the present application.
NF-κB inhibition rates where the concentrations of the compound of the present application were 1, 0.1, 0.01 and 0.001 μM were calculated, and the 50% inhibitory concentrations (IC50) of the compounds of the present application against activation of NF-κB were evaluated.

Row | Compound | Inhibition Rate of STAT6 (%) (STAT6) | Inhibition Rate of NF-κB (%) (NF-κB) | further results
1 | O=C(Nc1ccc(N2CCNCC2)c(F)c1)c1cc(Cl)ccc1O [Compound 22] | – | – | inhibition at 2 µM (STAT6; U2OS): 85%; IC50 (STAT6; U2OS): 0.0823 µM; inhibition at 2 µM (NF-κB; U2OS): 82%; IC50 (NF-κB; U2OS): 0.0808 µM
2 | NC1CCN(c2ccc(NC(=O)c3cc(Cl)ccc3O)cc2F)CC1 [Compound 27] | – | – | inhibition at 2 µM (STAT6; U2OS): 98%; IC50 (STAT6; U2OS): 0.00322 µM; inhibition at 2 µM (NF-κB; U2OS): 95%; IC50 (NF-κB; U2OS): 0.00679 µM
3 | O=C(Nc1ccc(C2CCNCC2)c(F)c1)c1cc(Cl)ccc1O [Compound 41] | – | – | inhibition at 2 µM (STAT6; U2OS): 78%; inhibition at 2 µM (NF-κB; U2OS): 74%
4 | CNC1CCN(c2ccc(NC(=O)c3cc(Cl)ccc3O)cc2F)CC1 [Compound 68] | – | – | inhibition at 2 µM (STAT6; U2OS): 74%; IC50 (STAT6; U2OS): 0.0404 µM; inhibition at 2 µM (NF-κB; U2OS): 71%; IC50 (NF-κB; U2OS): 0.0636 µM
5 | CN(C)C1CCN(c2ccc(NC(=O)c3cc(Cl)ccc3O)cc2F)CC1 [Compound 78] | – | – | inhibition at 2 µM (STAT6; U2OS): 46%; inhibition at 2 µM (NF-κB; U2OS): 49%
6 | O=C(Nc1cc(C(F)(F)F)cc(C(F)(F)F)c1)c1cc(Cl)ccc1O [N-[3,5-Bis(trifluoromethyl)phenyl]-5-chloro-2-hydroxybenzamide, reference compound] | – | – | IC50 (NF-κB; U2OS): 0.385 µM
7 | O=C(Nc1ccc(N2CCCCC2)c(F)c1)c1cc(Cl)ccc1O [compound 2] | 90 (2 μM) % | 77 (2 μM) % | IC50 (STAT6): 0.0581 µM; IC50 (NF-κB): 0.0394 µM
8 | O=C(Nc1ccc(N2CCOCC2)c(C(F)(F)F)c1)c1cc(Cl)ccc1O [compound 3] | 67 (2 μM) % | 30 (2 μM) % | –
9 | O=C(Nc1ccc(N2CCCCC2)c(C(F)(F)F)c1)c1cc(Cl)ccc1O [compound 4] | 71 (2 μM) % | 28 (2 μM) % | –
10 | O=C(Nc1ccc(OC2CCCCC2)c(C(F)(F)F)c1)c1cc(Cl)ccc1O [compound 5] | 88 (2 μM) % | 63 (2 μM) % | –
11 | O=C(Nc1ccc(N2CCCCCC2)c(F)c1)c1cc(Cl)ccc1O [compound 7] | 84 (2 μM) % | 46 (2 μM) % | –
12 | O=C(Nc1ccc(N2CCCCC2)c(Cl)c1)c1cc(Cl)ccc1O [compound 8] | 93 (2 μM) % | 61 (2 μM) % | –
13 | Cc1cc(NC(=O)c2cc(Cl)ccc2O)ccc1N1CCCCC1 [compound 9] | 53 (2 μM) % | – | –
14 | O=C(Nc1ccc(OC2CCCCC2)c(F)c1)c1cc(Cl)ccc1O [compound 10] | 76 (2 μM) % | 45 (2 μM) % | –
15 | CC(=O)N1CCN(c2ccc(NC(=O)c3cc(Cl)ccc3O)cc2F)CC1 [compound 11] | 40 (2 μM) % | 22 (2 μM) % | –
16 | CN1CCN(c2ccc(NC(=O)c3cc(Cl)ccc3O)cc2F)CC1 [compound 12] | 94 (2 μM) % | 91 (2 μM) % | IC50 (STAT6): 0.015 µM; IC50 (NF-κB): 0.0252 µM
17 | CCOc1cc(NC(=O)c2cc(Cl)ccc2O)ccc1N1CCCCC1 [compound 14] | 56 (2 μM) % | 60 (2 μM) % | –
18 | Cl.O=C(Nc1ccc(N2CCC(N3CCCC3)CC2)c(F)c1)c1cc(Cl)ccc1O [compound 15] | 59 (2 μM) % | 53 (2 μM) % | –
19 | CN1CCN(c2ccc(NC(=O)c3cc(Cl)ccc3O)cc2C(F)(F)F)CC1.Cl [compound 16] | 92 (2 μM) % | 86 (2 μM) % | IC50 (STAT6): 0.0822 µM; IC50 (NF-κB): 0.0891 µM
20 | CN1CCN(c2ccc(NC(=O)c3cc(Cl)ccc3O)cc2Cl)CC1.Cl [compound 17] | 96 (2 μM) % | 90 (2 μM) % | IC50 (STAT6): 0.0829 µM; IC50 (NF-κB): 0.113 µM
21 | CN1CCN(c2ccc(NC(=O)c3ccccc3O)cc2F)CC1.Cl [compound 30] | 19 (2 μM) % | – | –
22 | Cl.O=C(Nc1ccc(OC2CCCNC2)c(F)c1)c1cc(Cl)ccc1O (centres unmarked) [compound 56] | 19 (2 μM) % | – | –
23 | CC1CN(c2ccc(NC(=O)c3cc(Cl)ccc3O)cc2F)CCN1.Cl (centres unmarked) [compound 73] | 20 (2 μM) % | – | –
24 | CC1CCCN1c1ccc(NC(=O)c2cc(Cl)ccc2O)cc1F (centres unmarked) [compound 82] | 38 (2 μM) % | – | –

Reference: US7671058B2, “N-(3,4-disubstituted phenyl) salicylamide derivatives” (Institute of Medicinal Molecular Design, Inc., priority 2006, dated 2010)
